The values below come from paper PMC9386018, “A lymphatic-absorbed multi-targeted kinase inhibitor for myelofibrosis therapy” (Nature Communications, 2022).

“And” between values parts separate entries of the source, which are not always exact repeats. Identical values can stand only once.

The nature of series [1]: Compound quantitation in blood and mesenteric lymph nodes. Type of series: in vivo, mouse. To be noted: mice, 4 h after oral 100 mg kg^−1. The method, then:
Whole blood and mesenteric lymph nodes were collected either 30 min or 4 h following compound administration and stored at −20 °C until future processing and analysis by the University of Michigan Pharmacokinetics Core as above, or as outlined below, to determine compound concentrations in each tissue. […] Data was generated from n ≥ 4 individual animals per compound per study group or dose.
Briefly, acetonitrile was added to a final concentration of 60–80% to bone marrow, whole blood, plasma, lymphatic fluid, lymphatic proteo-lipid sub-fractions, or mesenteric lymph node samples for compound extraction. Extraction was performed by shaking and/or bead rupture using a Precellys Evolution tissue homogenizer (Bertin Technologies SAS). […] Optimization of MS and MS/MS parameters for MRM quantitation and maximum sensitivity of individual compounds was performed using SCIEX Analyst software (AB Sciex). […] All LC-MS/MS acquisitions were performed with an independent standard curve for each group of analytes and for each individual run. All solvents utilized were of Optima LC-MS Grade (Fisher Scientific). Data was generated from n ≥ 2 individual animals per compound per study condition or dose.

A short description of series [2]: Pharmacokinetic analysis of plasma after intravenous and oral dosing.
Experimental: (§1) Samples were centrifuged at 15,000 rpm for 10 min, then blood plasma was collected from the upper layer and frozen at −80 °C until analysis. […] Sample processing, chromatographic separation, MS, and MS/MS parameters used for analysis were determined by the core. […] Standard curves for peak area ratio of compound to internal standard (Astd/AIstd) vs. compound concentration were used to determine sample analyte concentrations through linear regression with a weighting average of 1/X^2. […] All pharmacokinetic parameters were estimated using non-compartmental analysis with Phoenix/WINONLIN, and provided by the core along with calculated sample analyte concentrations. Data was generated from n ≥ 3 individual animals sampled per time point per compound for each method of dosing.
Another series concerns SET-2 cells. As to the kind of experiment: SET-2 proliferation assay (CellTiter-Fluor). The series is classed as cell-based, human. As to conditions: 72 h, replicates (Fig. 2d). The method, then:
Viable cells were counted by CellTiter-Fluor Assay (Promega) according to manufacturer’s protocol, and all fluorescence values were corrected by a no-cell control. […] Caspase activity was measured by Caspase-Glo 3/7 assay (Promega) according to the manufacturer’s protocol, and all luminescence values were corrected by a no-cell control. Dose response proliferation and Caspase activation data was normalized to vehicle treated control cells and analyzed by non-linear regression for determination of IC50 values. Data was generated from n = 3 independent experiments performed in replicate.

The conditions of series [3]: female, CD-1, mouse, in vivo, po, 0.167 h.
Experimental: as §1
A further series is described as follows: in vivo. As to conditions: female, CD-1, mouse.
The test system of another series is MAPK signaling. As to conditions: cited from earlier work.

Experimental for in vivo: as §1

On to `O=C(NOCCO)c1ccc(F)c(F)c1Nc1ccc(I)cc1F` [PD0316684, reference compound], for which, in series [1], the “uptake in the mesenteric lymph nodes compared to LP5-37” value is listed as “reduced uptake”. The concentration at 0.167 h came to 771 ng/mL in series [2] (female, CD-1, mouse, plasma, iv, 15 mg kg^−1, Concentration (ng/mL), mice, single i.v. LP-182 15 mg kg^−1, 0.167 h, analyte = label, individual animals); 89.6 ng/mL in series [2] (female, CD-1, mouse, plasma, iv, 15 mg kg^−1, Concentration, Figure 6c, Time 0.167 h, individual replicates); 234 ng/mL in series [2] (female, CD-1, mouse, plasma, iv, 15 mg kg^−1, Concentration, Figure 6d, Time 0.167 h, individual replicates); 175 ng/mL in series [2] (female, CD-1, mouse, plasma, po, 400 mg kg^−1, Concentration (ng/mL), mice, single p.o. LP-182 400 mg kg^−1, 0.167 h, analyte = label, individual animals). In addition, the concentration at 1 h in series [2] (female, CD-1, mouse, plasma, iv, 15 mg kg^−1, Concentration (ng/mL), mice, single i.v. LP-182 15 mg kg^−1, 1 h, analyte = label, individual animals) was 95.3 ng/mL; in series [2] (female, CD-1, mouse, plasma, iv, 15 mg kg^−1, Concentration, Figure 6c, Time 1 h, individual replicates) it was 39.4 ng/mL; in series [2] (female, CD-1, mouse, plasma, iv, 15 mg kg^−1, Concentration, Figure 6d, Time 1 h, individual replicates) it was 112 ng/mL; in series [2] (female, CD-1, mouse, plasma, po, 200 mg kg^−1, Concentration, Figure 6d, Time 1 h, individual replicates), 156 ng/mL; in series [2] (female, CD-1, mouse, plasma, po, 400 mg kg^−1, Concentration (ng/mL), mice, single p.o. LP-182 400 mg kg^−1, 1 h, analyte = label, individual animals) it was 500 ng/mL. Further, the concentration at 2 h in series [2] (female, CD-1, mouse, plasma, iv, 15 mg kg^−1, Concentration (ng/mL), mice, single i.v. LP-182 15 mg kg^−1, 2 h, analyte = label, individual animals) was found to be 58.1 ng/mL; in series [2] (female, CD-1, mouse, plasma, iv, 15 mg kg^−1, Concentration, Figure 6c, Time 2 h, individual replicates), 18.7 ng/mL; in series [2] (female, CD-1, mouse, plasma, iv, 15 mg kg^−1, Concentration, Figure 6d, Time 2 h, individual replicates), 62.8 ng/mL. The concentration at 4 h in series [2] (female, CD-1, mouse, plasma, iv, 15 mg kg^−1, Concentration (ng/mL), mice, single i.v. LP-182 15 mg kg^−1, 4 h, analyte = label, individual animals) is 18.6 ng/mL; in series [2] (female, CD-1, mouse, plasma, iv, 15 mg kg^−1, Concentration, Figure 6d, Time 4 h, individual replicates), 39.4 ng/mL; in series [2] (female, CD-1, mouse, plasma, po, 400 mg kg^−1, Concentration (ng/mL), mice, single p.o. LP-182 400 mg kg^−1, 4 h, analyte = label, individual animals), 76.7 ng/mL. The concentration at 7 h in series [2] (female, CD-1, mouse, plasma, iv, 15 mg kg^−1, Concentration (ng/mL), mice, single i.v. LP-182 15 mg kg^−1, 7 h, analyte = label, individual animals) worked out at 5.74 ng/mL; in series [2] (female, CD-1, mouse, plasma, iv, 15 mg kg^−1, Concentration, Figure 6d, Time 7 h, individual replicates) it was 35.3 ng/mL; in series [2] (female, CD-1, mouse, plasma, po, 200 mg kg^−1, Concentration, Figure 6c, Time 7 h, individual replicates) it was 260 ng/mL; in series [2] (female, CD-1, mouse, plasma, po, 200 mg kg^−1, Concentration, Figure 6d, Time 7 h, individual replicates), 201 ng/mL. Further, the concentration at 16 h in series [2] (female, CD-1, mouse, plasma, iv, 15 mg kg^−1, Concentration (ng/mL), mice, single i.v. LP-182 15 mg kg^−1, 16 h, analyte = label, individual animals) was found to be 3.59 ng/mL; in series [2] (female, CD-1, mouse, plasma, po, 400 mg kg^−1, Concentration (ng/mL), mice, single p.o. LP-182 400 mg kg^−1, 16 h, analyte = label, individual animals) it was 68.3 ng/mL. Moreover, the concentration at 0.5 h in series [2] (female, CD-1, mouse, plasma, iv, 15 mg kg^−1, Concentration, Figure 6d, Time 0.5 h, individual replicates) worked out at 241 ng/mL; in series [2] (female, CD-1, mouse, plasma, po, 200 mg kg^−1, Concentration, Figure 6c, Time 0.5 h, individual replicates) it was 644 ng/mL; in series [2] (female, CD-1, mouse, plasma, po, 200 mg kg^−1, Concentration, Figure 6d, Time 0.5 h, individual replicates), 254 ng/mL; in series [2] (female, CD-1, mouse, plasma, po, 400 mg kg^−1, Concentration (ng/mL), mice, single p.o. LP-182 400 mg kg^−1, 0.5 h, analyte = label, individual animals), 399 ng/mL. Also, the concentration at 24 h was 3.46 ng/mL in series [2] (female, CD-1, mouse, plasma, iv, 15 mg kg^−1, Concentration, Figure 6d, Time 24 h, individual replicates) and 78.6 ng/mL in series [2] (female, CD-1, mouse, plasma, po, 400 mg kg^−1, Concentration (ng/mL), mice, single p.o. LP-182 400 mg kg^−1, 24 h, analyte = label, individual animals). This compound gave a concentration at […] in series [2] (female, CD-1, mouse, plasma, po, 200 mg kg^−1, Concentration, Figure 6d, Time […], individual replicates) of 131 ng/mL. The “plasma level maintained over 24 h” value in series [2] (mice, after oral LP-182 400 mg kg^−1, analyte = label) was ~100 ng/mL. Further, the “Growth (%)” value in the series on SET-2 cells (0.0390625 µM) is 95.6027% and 82.3855% and 49.4653% and 99.6209% and 66.699% and 96.6844%; in the series on SET-2 cells (0.078125 µM), 101.495% and 98.0639% and 103.106% and 103.604% and 92.0053% and 98.1242%; in the series on SET-2 cells (0.15625 µM), 100.075% and 88.7042% and 52.4529% and 86.403% and 62.7397% and 78.9368%; in the series on SET-2 cells (0.3125 µM), 97.1172% and 98.6318% and 60.2388% and 84.8639% and 78.1339% and 80.2658%; in the series on SET-2 cells (0.625 µM) it was 88.0297% and 91.2009% and 71.3744% and 84.6376% and 79.2414% and 81.5948%; in the series on SET-2 cells (5 µM), 71.6887% and 74.5167% and 60.9631% and 39.5066% and 70.9074% and 51.4432%. In addition, the “Growth (%)” value in the series with SET-2 cells (10 µM) is 49.6443% and 48.6858% and 23.1653% and 17.5522% and 22.5652% and 22.2053%; in the series with SET-2 cells (20 µM), 15.211% and 15.14% and -3.18% and -3.361% and -4.513% and -3.5163%.
In series [3], `COc1ccc(-c2ccc3c(N4CCOC[C@@H]4C)nc(N4CCOC[C@@H]4C)nc3n2)cc1CO` [AZD8055] returned a Concentration of 704 ng/mL. Also, in the series “in vivo” (iv), the concentration at 0.167 h was found to be 3300 ng/mL, the concentration at 0.5 h is 2510 ng/mL, the concentration at 1 h was found to be 1710 ng/mL and the concentration at 2 h came to 744 ng/mL. In the series “in vivo” (iv), this compound showed a concentration at 24 h of 1 ng/mL. For the same compound, in “in vivo” (po), the concentration at 0.167 h was 626 ng/mL, the concentration at 0.5 h was 3700 ng/mL, the concentration at 1 h was 3440 ng/mL and the concentration at 2 h is 4880 ng/mL. Further, in “in vivo” (po), the concentration at 7 h turned out to be 3930 ng/mL and the concentration at 16 h was 4430 ng/mL.
In the case of `O=C(NOC[C@H](O)CO)c1ccc(F)c(F)c1Nc1ccc(I)cc1F` [PD0325901], the “plasma concentration with significant pharmacologic activity against MAPK signaling” value in the series on MAPK signaling was > 50 ng mL^−1.
